The text below walks through data of patent publication US7572635B2, “Method for agrobacterium transformation for dihaploid corn plants” (Monsanto Technology LLC, priority 2004, dated 2009).

The subject of data set [1] is R0 plants. Kind of data set: Comparison of doubling with and without colchicine: ploidy number of R0 plants. It counts as in vivo, corn. From the text:
Comparison of Doubling with and without Colchicine
This is about a 3-fold increase in the amount of doubling. The doubling from the Agrobacterium-mediated transformation process is about as efficient as a very low level of colchicine (50%), but not as effective as a more typical amount (83%).

Data set [2] concerns plant tissues. Description: Regenerability of plant tissues exposed to colchicine (own experiments). It counts as cell-based. As to conditions: levels of colchicine below levels used for chromosome doubling. From the text:
The ability to produce dihaploid transformed plants without the use of an added chromosome doubling agent is a huge advantage. Chromosome doubling agents tend to be highly toxic chemicals because they are antimicrotubule agents. Also, when using chromosome doubling agents to produce dihaploids from haploids some tetraploids are formed as well. Also, optimization of the chromosome doubling agent is detrimental to the production of transformants in the transformation process.

Turning to `COc1cc2c(c(OC)c1OC)-c1ccc(OC)c(=O)cc1[C@@H](NC(C)=O)CC2` [colchicine], the “% diploid” value in data set [1] (no transformation + 0.01% colchicine + plant regeneration (very low level of colchicine)) worked out at 50%; in data set [1] (no transformation + 0.025% colchicine + plant regeneration (more typical amount used for doubling)), 83%. Also, in data set [2], the “regenerability of plant tissues” value was “greatly diminish the regenerability of plant tissues”.
